Reference: patent US11701355B2, “Levosimendan for treating pulmonary hypertension with heart failure with preserved ejection fraction (PH-HFpEF)” (Tenax Therapeutics, Inc., priority 2019, dated 2023)
“And” between values parts separate entries of the source, which are not always exact repeats. Identical values can stand only once.

Key:
PH-HFpEF patients = assay: HELP Study open-label lead-in phase: 24-hour levosimendan infusion, right heart catheterization at rest and 25 watt exercise; assay type: in vivo, human
Source text: Enrolled PH-HFpEF subjects receive a lead-in 24-hour levosimendan infusion to determine their hemodynamic response and eligibility for the double-blind phase of the study. A total of 36 “responders” are randomized in the double-blind, placebo-controlled phase. “Responders” are identified as those subjects with a ≥4 mmHg reduction in PCWP during bicycle exercise (25 watts) and no more than a 10% decrease in cardiac index between the baseline measurements and repeated measurements following the initial infusion.
Study drug is administered via i.v. infusion over 24 hours weekly through Week 5 via a PICC line. Infusions (Week 2-5) are done in the subject's home by a study nurse. Patients return to the study site for a visit between the Week 3 and Week 4 infusions for assessment of subject safety/response and need for dose adjustment. Each subject is to return on Week 6 for assessment of efficacy and safety on study drug. A right heart catheter will be inserted to obtain hemodynamic measurements at rest and exercise at baseline, the following day after the lead-in 24-hour infusion, and during Week 6.
During the Lead-in phase, levosimendan, supplied as a concentrated solution (2.5 mg/mL), is mixed with diluent and administered intravenously at 0.10 μg/kg/min for 24 hours +/−30 min.
Visits during the Lead-In phase of the trial require a subject to be hospitalized for the entire infusion period, which at a minimum will last 24 hours. Once the infusion is complete, hemodynamic measurements are collected to ensure subject eligibility. Visits for Week 2 through Week 6 are calculated based on the date of the Lead-in infusion.
During the Lead-in Infusion (Day 0) the following procedures are performed: Measure vital signs (BP, PR, respiratory rate, temperature), venous sheath placement for right heart catheterization (The sheath will remain following the baseline study, and the patient is hospitalized where they receive the 24-hour levosimendan infusion (preferably through the venous sheath). The sheath is then used for access for the right heart catheterization study following the 24-hour levosimendan infusion, and then removed), right heart catheterization measurements: baseline (prior to levosimendan infusion) and post 24-hour infusion to establish qualifying baseline hemodynamics at rest and exercise and to establish qualifying response to levosimendan during exercise, assess adverse events, assess concomitant medications and/or procedures, pharmacokinetic sampling (to be taken at the end of infusion: 24+/−2 hours), genotyping sampling (to be taken at the end of infusion: 24+/−2 hours). […] A PICC line is placed in patients that meet eligibility criteria and who are randomized into the Double-Blind phase of the study.

[1] = parent drug, intravenous infusion; cited from earlier work
HFrEF patients = details: compared with placebo; cited from earlier work
[2] = tested on: patients afflicted with pulmonary hypertension; details: chronic dosing over an 8-week period; cited from earlier work
[3] = average of 30 patients, 25 watts exercise
[4] = average of 30 patients, rest legs down
[5] = first 30 randomized patients, 25 watts exercise
[6] = first 30 randomized patients, rest
[7] = individual patients, after 24-hour lead-in infusion, 25 watts exercise
[8] = individual patients, after 24-hour lead-in infusion, rest legs down
[9] = individual patients, post vs pre, 25 watts exercise
[10] = individual patients, post vs pre, rest legs down

SMILES: C[C@@H]1CC(=O)NN=C1c1ccc(NN=C(C#N)C#N)cc1 [levosimendan, Levosimendan]
- patients who exhibited a ≥4 mmHg decrease of PCWP (PH-HFpEF patients; acute (24 hours) open-label levosimendan, n=44): 85%
- Exercise CO Change Avg (PH-HFpEF patients; [3]): 0.6 L/min
- PCWP Exercise Change Avg (PH-HFpEF patients; [3]): −7.53 mmHg
- RAP (Exercise) Change Avg (PH-HFpEF patients; [3]): −4.97 mmHg
- mPAP Exercise Change Avg (PH-HFpEF patients; [3]): −5.1 mmHg
- PCWP-Rest (down) Change Avg (PH-HFpEF patients; [4]): −5.800 mmHg
- RAP (Rest-down) Change Avg (PH-HFpEF patients; [4]): −4.83 mmHg
- Rest (down) CO Change Avg (PH-HFpEF patients; [4]): 0.33 L/min
- mPAP Rest (down) Change Avg (PH-HFpEF patients; [4]): −5.4 mmHg
- increase of cardiac output during 25 watts of exercise, average (PH-HFpEF patients; [5]): 0.60 L/min
- reduction of mean pulmonary arterial pressure during 25 watts of exercise, average (PH-HFpEF patients; [5]): 5.1 mmHg
- reduction of pulmonary capillary wedge pressure during 25 watts of exercise, average (PH-HFpEF patients; [5]): 7.53 mmHg
- reduction of right atrial pressure during 25 watts of exercise, average (PH-HFpEF patients; [5]): 4.97 mmHg
- increase of cardiac output during rest, average (PH-HFpEF patients; [6]): 0.33 L/min
- reduction of mean pulmonary arterial pressure during rest, average (PH-HFpEF patients; [6]): 5.4 mmHg
- reduction of pulmonary capillary wedge pressure during rest, average (PH-HFpEF patients; [6]): 5.8 mmHg
- reduction of right atrial pressure during rest, average (PH-HFpEF patients; [6]): 4.83 mmHg
- pulmonary capillary wedge pressure during rest after levosimendan, average (PH-HFpEF patients; first 30 randomized patients, rest, baseline 23.4): 17.6 mmHg
- cardiac output during rest after levosimendan, average (PH-HFpEF patients; first 30 randomized patients, baseline 5.1): 5.5 L/min
- cardiac output during 25 watts of exercise after levosimendan, average (PH-HFpEF patients; first 30 randomized patients, baseline 6.7): 7.4 L/min
- right atrial pressure during rest after levosimendan, average (PH-HFpEF patients; first 30 randomized patients, baseline 16.2): 11.3 mmHg
- right atrial pressure during 25 watts of exercise after levosimendan, average (PH-HFpEF patients; first 30 randomized patients, baseline 27.9): 23.0 mmHg
- pulmonary capillary wedge pressure during 25 watts of exercise after levosimendan, average (PH-HFpEF patients; first 30 randomized patients, baseline 33.2): 25.7 mmHg
- mean pulmonary arterial pressure during rest after levosimendan, average (PH-HFpEF patients; first 30 randomized patients, baseline 42.4): 37.0 mmHg
- mean pulmonary arterial pressure during 25 watts of exercise after levosimendan, average (PH-HFpEF patients; first 30 randomized patients, baseline 58.3): 53.3 mmHg
- Exercise CO Post (PH-HFpEF patients; [7]): 3.55 l/min and 3.25 l/min and 5.5 l/min and 5.05 l/min and 9.1 l/min (2×) and 4.68 l/min and 5.725 l/min and 5.9 l/min and 9 l/min and 7.65 l/min and 11.3 l/min and 7.9 l/min and 7.1 l/min and 12.8 l/min and 5.2 l/min and 8.0 l/min and 10.5 l/min and 4.2 l/min and 13.9 l/min and 7.2 l/min and 10.6 l/min and 11.1 l/min and 5.4 l/min and 6.5 l/min (2×) and 4.23 l/min and 6.93 l/min and 6.05 l/min and 7.7 l/min
- PCWP Exercise Post (PH-HFpEF patients; [7]): 27 mmHg and 33 mmHg (2×) and 23 mmHg (2×) and 42 mmHg and 35 mmHg and 20 mmHg (2×) and 15 mmHg (2×) and 31 mmHg (2×) and 18 mmHg (4×) and 28 mmHg (4×) and 30 mmHg and 22 mmHg and 24 mmHg and 19 mmHg (2×) and 25 mmHg and 29 mmHg and 34 mmHg and 37 mmHg
- RAP (Exercise) Post (PH-HFpEF patients; [7]): 34 mmHg and 17 mmHg (2×) and 10 mmHg and 20 mmHg (4×) and 16 mmHg (3×) and 24 mmHg and 36 mmHg and 18 mmHg and 12 mmHg (3×) and 22 mmHg and 29 mmHg (2×) and 25 mmHg (3×) and 28 mmHg (2×) and 19 mmHg and 38 mmHg (2×) and 37 mmHg and 26 mmHg
- mPAP Exercise Post (PH-HFpEF patients; [7]): 52 mmHg (4×) and 47 mmHg (3×) and 67 mmHg and 48 mmHg and 40 mmHg and 80 mmHg and 57 mmHg and 38 mmHg (3×) and 35 mmHg and 50 mmHg and 55 mmHg and 51 mmHg (2×) and 58 mmHg and 27 mmHg and 60 mmHg and 66 mmHg and 36 mmHg and 81 mmHg and 68 mmHg (2×) and 75 mmHg and 62 mmHg
- RAP (Rest-down) Post (PH-HFpEF patients; [8]): 17 mmHg and 5 mmHg and 4 mmHg and 12 mmHg (6×) and 7 mmHg and 18 mmHg (2×) and 3 mmHg and 8 mmHg (2×) and 9 mmHg (2×) and 13 mmHg (2×) and 10 mmHg (3×) and 11 mmHg (2×) and 15 mmHg (2×) and 1 mmHg and 14 mmHg and 19 mmHg and 20 mmHg
- Rest (down) CO Post-Levo (PH-HFpEF patients; [8]): 3.0 l/min and 3.2 l/min and 4.5 l/min and 3.8 l/min (2×) and 6.9 l/min and 6.2 l/min and 4.2 l/min and 5.2 l/min and 6.5 l/min (2×) and 5.3 l/min (3×) and 5.6 l/min and 7.6 l/min and 4.1 l/min and 6.0 l/min and 8.6 l/min and 5.9 l/min and 4.3 l/min and 6.4 l/min and 4.0 l/min and 11.0 l/min and 4.7 l/min and 4.4 l/min and 3.9 l/min and 5.4 l/min and 5.8 l/min and 7.0 l/min
- mPAP Rest (down) Post-Levo (PH-HFpEF patients; [8]): 45 mmHg and 27 mmHg and 35 mmHg (2×) and 25 mmHg and 21 mmHg (2×) and 65 mmHg and 38 mmHg and 28 mmHg (2×) and 37 mmHg (2×) and 30 mmHg (2×) and 42 mmHg and 41 mmHg and 26 mmHg (2×) and 46 mmHg and 24 mmHg (2×) and 29 mmHg and 34 mmHg and 32 mmHg and 62 mmHg and 57 mmHg (2×) and 59 mmHg and 49 mmHg
- PCWP-Rest (down) Post-Levo (PH-HFpEF patients; individual patients, n=30 responders, after 24-hour lead-in infusion, rest legs down): 17 mmHg (6×) and 19 mmHg (2×) and 12 mmHg (2×) and 21 mmHg (3×) and 18 mmHg and 23 mmHg (2×) and 14 mmHg (3×) and 16 mmHg (2×) and 29 mmHg and 8 mmHg (2×) and 22 mmHg and 20 mmHg (2×) and 15 mmHg and 13 mmHg and 27 mmHg
- PCWP-Rest (down) Change (PH-HFpEF patients; individual patients, post vs pre levosimendan lead-in infusion, rest legs down): −3 mmHg (5×) and −8 mmHg and −11 mmHg (2×) and 1 mmHg and −12 mmHg (2×) and 3 mmHg and −6 mmHg (2×) and −18 mmHg and −13 mmHg (2×) and −2 mmHg (3×) and −5 mmHg (2×) and 2 mmHg and 0 mmHg and −10 mmHg and −9 mmHg and −14 mmHg and −1 mmHg (2×) and −4 mmHg
- Exercise CO Change (PH-HFpEF patients; [9]): 0.4 l/min (2×) and 0.0 l/min (2×) and 0.8 l/min (3×) and −0.3 l/min (2×) and −0.2 l/min (2×) and 0.3 l/min and 1.7 l/min (2×) and 0.2 l/min (2×) and 1.8 l/min (2×) and 1.9 l/min and −1.7 l/min and 4.8 l/min and 1.5 l/min and 0.1 l/min and −0.5 l/min (2×) and −1.0 l/min and 0.9 l/min and 1.0 l/min and 1.4 l/min and 1.3 l/min
- PCWP Exercise Change (PH-HFpEF patients; [9]): −8 mmHg (3×) and −7 mmHg (4×) and −13 mmHg and −5 mmHg (7×) and −10 mmHg and −4 mmHg (3×) and −22 mmHg and −14 mmHg (2×) and −6 mmHg (6×) and −9 mmHg (2×)
- RAP (Exercise) Change (PH-HFpEF patients; [9]): −8 mmHg (5×) and −4 mmHg and −3 mmHg (3×) and −6 mmHg (2×) and −12 mmHg and −11 mmHg and 1 mmHg (3×) and −18 mmHg and −9 mmHg and −5 mmHg (2×) and −14 mmHg and −2 mmHg (3×) and 3 mmHg and 6 mmHg and 0 mmHg (2×) and −15 mmHg and −1 mmHg
- mPAP Exercise Change (PH-HFpEF patients; [9]): −7 mmHg and −3 mmHg (4×) and −15 mmHg (2×) and −5 mmHg (2×) and 2 mmHg and −22 mmHg and −13 mmHg (2×) and 4 mmHg (2×) and −8 mmHg (2×) and −9 mmHg and 12 mmHg and −4 mmHg (2×) and −2 mmHg and 1 mmHg (3×) and 6 mmHg and −11 mmHg and −12 mmHg (2×) and −6 mmHg
- RAP (Rest-down) Change (PH-HFpEF patients; [10]): −3 mmHg (3×) and −4 mmHg (5×) and 0 mmHg (3×) and −5 mmHg (6×) and 1 mmHg and −23 mmHg and −1 mmHg and −7 mmHg (3×) and −6 mmHg (2×) and −2 mmHg (2×) and −9 mmHg (2×) and −8 mmHg
- Rest (down) CO Change (PH-HFpEF patients; [10]): 0.17 l/min and 0.23 l/min (2×) and 0.27 l/min and 0.43 l/min and 1.06 l/min (2×) and 0.05 l/min and 0.62 l/min and 1.40 l/min and −0.07 l/min and 0.67 l/min and 2.03 l/min and −0.97 l/min and 1.03 l/min and 1.60 l/min and 0.00 l/min and 0.20 l/min and −0.53 l/min (2×) and 0.07 l/min and −0.47 l/min and 0.13 l/min and −1.07 l/min and −1.87 l/min and −0.30 l/min and 0.85 l/min and 1.50 l/min and 1.20 l/min and 0.87 l/min
- mPAP Rest (down) Change (PH-HFpEF patients; [10]): −5 mmHg (2×) and −8 mmHg (2×) and −11 mmHg (2×) and 1 mmHg and −10 mmHg (2×) and 5 mmHg (3×) and −2 mmHg (2×) and −22 mmHg and −12 mmHg (2×) and 2 mmHg (2×) and −9 mmHg (4×) and 3 mmHg and −6 mmHg and −4 mmHg and −13 mmHg and −14 mmHg and 6 mmHg and 0 mmHg
- half-life [1]: approximately 1 hour
- cardiac output, stroke volume, ejection fraction, and heart rate (HFrEF patients): increased
- systolic blood pressure, diastolic blood pressure, pulmonary capillary wedge pressure, right atrial pressure, and peripheral vascular resistance (HFrEF patients): reduced
- efficacy [2]: failed to show efficacy
